# Test results taken from publication PMC6351562, “Structure, function, and inhibition of drug reactivating human gut microbial β-glucuronidases” (Scientific Reports, 2019).
# Where two headings read alike, the source gives them in different places.
# Legend:
# E. coli GUS (EcGUS) [1] = target: T1, E. coli GUS (EcGUS) (Escherichia coli, UniProt P05804); assay: In vitro inhibition assay (pNPG hydrolysis); assay type: biochemical; conditions: for IC50: pNPG 900 µM, 1 hour end point
# [2] = target: T2, Eubacterium eligens GUS (EeGUS) (Lachnospira eligens, UniProt C4Z6Z2); assay: In vitro inhibition assay (pNPG hydrolysis); assay type: biochemical; conditions: pNPG 900 µM
# T2 sequence (C4Z6Z2 1-611): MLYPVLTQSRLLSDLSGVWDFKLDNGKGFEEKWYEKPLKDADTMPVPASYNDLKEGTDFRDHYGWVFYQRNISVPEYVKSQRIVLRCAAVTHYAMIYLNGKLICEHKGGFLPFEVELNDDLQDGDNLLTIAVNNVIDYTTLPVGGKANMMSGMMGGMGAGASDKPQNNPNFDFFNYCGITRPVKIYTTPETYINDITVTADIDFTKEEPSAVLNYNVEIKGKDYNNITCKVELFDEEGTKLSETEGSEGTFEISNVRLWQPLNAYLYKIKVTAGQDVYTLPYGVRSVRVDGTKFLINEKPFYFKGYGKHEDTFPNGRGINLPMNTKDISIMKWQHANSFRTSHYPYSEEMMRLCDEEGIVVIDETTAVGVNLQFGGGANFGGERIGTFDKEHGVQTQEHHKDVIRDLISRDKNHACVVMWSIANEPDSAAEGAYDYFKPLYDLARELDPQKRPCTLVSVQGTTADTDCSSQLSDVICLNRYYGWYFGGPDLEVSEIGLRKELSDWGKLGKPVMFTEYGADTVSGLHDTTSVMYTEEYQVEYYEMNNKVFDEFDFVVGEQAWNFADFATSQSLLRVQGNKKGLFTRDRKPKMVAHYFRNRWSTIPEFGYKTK
# [3] = target: T3, Streptococcus agalactiae GUS (SaGUS) (Streptococcus agalactiae serotype V, UniProt Q8E0N2); assay: In vitro inhibition assay (pNPG hydrolysis); assay type: biochemical; conditions: for IC50: pNPG 900 µM
# T3 construct: 6x His; made in house
# [4] = target: T4, Lactobacillus rhamnosus GUS (LrGUS) (Lacticaseibacillus rhamnosus, UniProt A0A2A5L2J1); assay: In vitro inhibition assay (pNPG hydrolysis); assay type: biochemical
# T4 sequence (A0A2A5L2J1 1-603): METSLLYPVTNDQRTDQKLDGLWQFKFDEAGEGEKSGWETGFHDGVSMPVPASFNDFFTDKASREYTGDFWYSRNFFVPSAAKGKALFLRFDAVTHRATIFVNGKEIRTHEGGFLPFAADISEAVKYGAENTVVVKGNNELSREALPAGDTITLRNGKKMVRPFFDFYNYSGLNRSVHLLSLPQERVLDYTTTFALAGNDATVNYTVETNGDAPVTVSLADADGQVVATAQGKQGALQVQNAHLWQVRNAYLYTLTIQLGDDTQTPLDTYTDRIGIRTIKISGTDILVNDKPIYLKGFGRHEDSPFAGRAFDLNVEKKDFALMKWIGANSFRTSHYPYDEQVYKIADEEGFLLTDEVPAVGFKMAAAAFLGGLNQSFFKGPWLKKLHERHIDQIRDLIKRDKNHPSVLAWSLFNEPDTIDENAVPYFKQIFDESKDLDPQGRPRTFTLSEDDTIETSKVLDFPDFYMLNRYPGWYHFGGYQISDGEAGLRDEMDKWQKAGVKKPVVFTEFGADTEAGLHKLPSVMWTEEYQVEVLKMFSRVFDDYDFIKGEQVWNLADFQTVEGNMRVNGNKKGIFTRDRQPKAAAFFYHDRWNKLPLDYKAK
# [5] = target: T5, Bacteroides fragilis GUS (BfGUS) (Bacteroides fragilis, UniProt Q5LIC7); assay: In vitro inhibition assay (pNPG hydrolysis); assay type: biochemical
# [6] = target: T6, Bacteroides uniformis GUS (BuGUS) (Bacteroides uniformis, UniProt A0A078SUX9); assay: In vitro inhibition assay (pNPG hydrolysis); assay type: biochemical
# T6 sequence (A0A078SUX9 32-886): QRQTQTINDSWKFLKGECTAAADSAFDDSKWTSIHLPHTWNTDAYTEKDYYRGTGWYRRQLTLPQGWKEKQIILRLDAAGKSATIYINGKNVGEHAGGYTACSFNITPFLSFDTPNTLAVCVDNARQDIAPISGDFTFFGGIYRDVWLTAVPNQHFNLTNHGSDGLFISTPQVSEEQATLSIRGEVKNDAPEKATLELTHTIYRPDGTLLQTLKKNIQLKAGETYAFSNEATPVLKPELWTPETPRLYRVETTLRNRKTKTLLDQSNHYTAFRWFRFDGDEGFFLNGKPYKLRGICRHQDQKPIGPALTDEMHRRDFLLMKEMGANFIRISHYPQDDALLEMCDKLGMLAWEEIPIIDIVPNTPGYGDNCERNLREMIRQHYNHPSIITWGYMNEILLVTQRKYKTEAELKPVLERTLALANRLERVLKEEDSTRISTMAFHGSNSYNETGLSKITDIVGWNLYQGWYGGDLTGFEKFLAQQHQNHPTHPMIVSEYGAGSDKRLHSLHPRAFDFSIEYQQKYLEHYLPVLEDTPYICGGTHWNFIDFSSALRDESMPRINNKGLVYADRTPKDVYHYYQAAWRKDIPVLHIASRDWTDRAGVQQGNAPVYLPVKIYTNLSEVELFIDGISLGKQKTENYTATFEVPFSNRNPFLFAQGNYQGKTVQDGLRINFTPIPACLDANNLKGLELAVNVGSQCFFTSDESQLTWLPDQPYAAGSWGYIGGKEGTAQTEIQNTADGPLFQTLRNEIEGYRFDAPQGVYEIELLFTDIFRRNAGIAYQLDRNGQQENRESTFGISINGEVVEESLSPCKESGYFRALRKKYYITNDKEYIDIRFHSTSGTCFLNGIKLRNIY
# EcGUS F365A = assay type: biochemical, E. coli; conditions: IC50 curves, Fig. S14
# E. coli GUS (EcGUS) [7] = target: T1, E. coli GUS (EcGUS); design: method as in PMID 21051639, PMID 26364932, PMID 30062115; conditions: earlier work; cited from earlier work
# [8] = target: T5, Bacteroides fragilis GUS (BfGUS); design: method as in PMID 21051639, PMID 26364932, PMID 30062115; conditions: earlier work; cited from earlier work
# [9] = pH 6.5, 1 hour end point, read-out: UNC10201652 (IC50, nM) pH 6.5
# [10] = pH 7.5, 1 hour end point, read-out: UNC10201652 (IC50, nM) pH 7.5
# [11] = pH 7.5, pNPG 900 µM, read-out: UNC10201652 (IC50, nM) pH 7.5
# [12] = read-out: UNC10201652 (IC50, nM) pH 6.5
# [13] = read-out: inhibition at 100 µM Inhibitor 1, 100 µM, pH 6.5 and 7.5
# [14] = Inhibitor 1 (IC50, nM) pH 6.5, pH 6.5
# [15] = Inhibitor 1 (IC50, nM) pH 7.5, pH 7.5
# [16] = read-out: Inhibitor 1 (IC50, nM) pH 7.5, pH 7.5, pNPG 900 µM
# T5 sequence (Q5LIC7 whole entry): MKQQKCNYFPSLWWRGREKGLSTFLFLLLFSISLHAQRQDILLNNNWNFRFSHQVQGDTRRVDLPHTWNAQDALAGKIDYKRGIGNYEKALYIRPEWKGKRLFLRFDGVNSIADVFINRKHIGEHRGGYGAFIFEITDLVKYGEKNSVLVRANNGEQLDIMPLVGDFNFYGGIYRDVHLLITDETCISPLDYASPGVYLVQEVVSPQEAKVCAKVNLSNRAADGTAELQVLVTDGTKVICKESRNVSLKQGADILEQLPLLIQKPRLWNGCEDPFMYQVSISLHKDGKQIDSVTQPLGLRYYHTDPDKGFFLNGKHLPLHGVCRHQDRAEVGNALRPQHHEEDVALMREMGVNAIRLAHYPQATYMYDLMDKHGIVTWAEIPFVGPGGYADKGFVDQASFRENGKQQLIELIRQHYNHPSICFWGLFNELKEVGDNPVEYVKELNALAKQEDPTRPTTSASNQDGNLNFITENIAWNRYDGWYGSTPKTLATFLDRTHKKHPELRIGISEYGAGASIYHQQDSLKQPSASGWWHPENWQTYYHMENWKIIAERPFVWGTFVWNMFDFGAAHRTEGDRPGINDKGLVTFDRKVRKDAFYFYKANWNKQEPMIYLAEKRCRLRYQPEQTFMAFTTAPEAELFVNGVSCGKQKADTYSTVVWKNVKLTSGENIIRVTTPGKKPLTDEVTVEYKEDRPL
# T1 sequence (P05804 whole entry): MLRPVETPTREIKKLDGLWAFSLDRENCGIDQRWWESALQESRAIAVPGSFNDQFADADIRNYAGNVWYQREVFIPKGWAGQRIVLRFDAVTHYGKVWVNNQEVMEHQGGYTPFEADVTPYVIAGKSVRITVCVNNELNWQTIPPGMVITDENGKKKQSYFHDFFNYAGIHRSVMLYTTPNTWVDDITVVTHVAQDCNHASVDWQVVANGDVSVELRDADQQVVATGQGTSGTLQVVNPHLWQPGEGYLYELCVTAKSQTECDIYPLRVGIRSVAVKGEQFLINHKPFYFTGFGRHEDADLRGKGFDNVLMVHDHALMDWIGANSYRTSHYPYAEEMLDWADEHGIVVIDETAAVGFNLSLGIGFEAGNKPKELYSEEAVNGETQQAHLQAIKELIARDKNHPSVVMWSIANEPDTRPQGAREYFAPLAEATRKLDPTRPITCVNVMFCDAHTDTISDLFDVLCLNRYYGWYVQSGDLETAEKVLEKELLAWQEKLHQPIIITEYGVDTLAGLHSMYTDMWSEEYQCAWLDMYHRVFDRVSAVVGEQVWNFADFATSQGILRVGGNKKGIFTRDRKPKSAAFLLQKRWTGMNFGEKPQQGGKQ
# T3 sequence (Q8E0N2 whole entry): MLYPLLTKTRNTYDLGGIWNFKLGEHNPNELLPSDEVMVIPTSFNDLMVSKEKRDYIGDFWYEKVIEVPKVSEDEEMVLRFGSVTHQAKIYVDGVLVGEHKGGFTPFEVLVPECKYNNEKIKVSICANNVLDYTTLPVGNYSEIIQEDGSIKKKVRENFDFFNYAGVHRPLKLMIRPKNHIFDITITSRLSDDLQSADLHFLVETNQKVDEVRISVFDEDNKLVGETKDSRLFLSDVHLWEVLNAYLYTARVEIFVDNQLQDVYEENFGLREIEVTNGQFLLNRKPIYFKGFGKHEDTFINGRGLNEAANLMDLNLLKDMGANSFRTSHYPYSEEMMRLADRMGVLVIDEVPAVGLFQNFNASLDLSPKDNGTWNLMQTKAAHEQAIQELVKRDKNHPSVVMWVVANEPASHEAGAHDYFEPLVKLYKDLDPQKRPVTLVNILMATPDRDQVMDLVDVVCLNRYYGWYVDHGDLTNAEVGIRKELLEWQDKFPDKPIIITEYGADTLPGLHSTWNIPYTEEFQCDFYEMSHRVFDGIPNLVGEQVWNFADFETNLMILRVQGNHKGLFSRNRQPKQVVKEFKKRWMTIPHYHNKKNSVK
structure (smiles),measurement,setting,value
C1CCc2c(c(N3CCOCC3)nc3sc4c(N5CCNCC5)nnnc4c23)C1 [UNC10201652],decrease in potency from pH 7.5 to pH 6.5,"E. coli GUS (EcGUS) [1]; UNC10201652, IC50 pH 6.5 vs pH 7.5",3 fold
same,IC50,"E. coli GUS (EcGUS) [1]; pH 6.5, read-out: UNC10201652 (IC50, nM) pH 6.5",310 ± 20 nM
same,IC50,"E. coli GUS (EcGUS) [1]; pH 7.5, read-out: UNC10201652 (IC50, nM) pH 7.5",100 ± 8 nM
same,potency relative to Inhibitor 1,"E. coli GUS (EcGUS) [1]; pH 7.5, times more potent than Inhibitor 1",19 times
same,IC50,[2]; [9],1900 ± 100 nM
same,IC50,[2]; [10],410 ± 30 nM
same,IC50,[3]; [9],450 ± 30 nM
same,IC50,[3]; [10],133 ± 3 nM
same,IC50,[4]; [11],> 100000 nM
same,IC50,[4]; [12],> 100000 nM
same,inhibition (in words),"[5]; UNC10201652, text in picture of Fig. 7b",No Inhibition
same,IC50,[5]; [11],> 100000 nM
same,IC50,[5]; [12],> 100000 nM
same,inhibition (in words),"[6]; UNC10201652, text in picture of Fig. 7c",No Inhibition
same,IC50,[6]; [11],> 100000 nM
same,IC50,[6]; [12],> 100000 nM
same,potency toward EcGUS F365 mutant compared with WT,EcGUS F365A,less potent
same,inhibition of EcGUS (in words),E. coli GUS (EcGUS) [7],potent
same,inhibition of BfGUS (in words),[8],did not inhibit
CCOc1ccc(NC(=S)N(CCO)Cc2cc3cc(C)cc(C)c3[nH]c2=O)cc1 [Inhibitor 1],inhibition at 100 µM,E. coli GUS (EcGUS) [1]; [13],≥ 80%
same,IC50,[2]; [14],> 100000 nM
same,IC50,[2]; [15],> 100000 nM
same,IC50,[3]; [14],> 25000 nM
same,IC50,[3]; [15],> 25000 nM
same,inhibition at 100 µM,[3]; [13],≥ 80%
same,IC50,[4],> 100000 nM
same,IC50,[4]; [16],> 100000 nM
same,IC50,[5],> 100000 nM
same,IC50,[5]; [16],> 100000 nM
same,IC50,[6],> 100000 nM
same,IC50,[6]; [16],> 100000 nM
same,potency toward EcGUS F365 mutant compared with WT,EcGUS F365A,less potent
same,inhibition of EcGUS (in words),E. coli GUS (EcGUS) [7],potent
same,inhibition of BfGUS (in words),[8],did not inhibit
